# Measured values published in patent US10738002B2, “Halogenated benzotropolones as ATG4B inhibitors” (Universiteit Antwerpen, priority 2016, dated 2020).
# Like-named read-outs stand apart in the source and are kept apart here.
# Experiments:
# [1] = test system: Jurkat T-cells; assay: CYTO-ID-based phenotypical screening for autophagy inhibition; format: cell-based; conditions: Homo sapiens, tested at 10 mM concentration + 10 μM everolimus, everolimus-treated = 1 (normalized), control 0.37, read-out: CYTOID assay (autophagy relative to the everolimus-treated group)
# Description: Final compounds were screened for autophagy/Atg4B inhibition in 3 different assays: a gel-based screening for Atg4B inhibition, a CYTO-ID-based phenotypical screening for autophagy inhibition and a luciferase reporter assay for assessment of intracellular Atg4B inhibition. Initially, all compounds were evaluated using the SDS-PAGE-based screening assay. Each test compound was incubated with [LC3B-GST], a fusion protein of LC3B and glutathione-S-transferase, and Atg4B in Tris-HCl buffer for a fixed time period. Afterwards, residual fusion protein and cleavage products were separated by gel electrophoresis and quantified using optical densitometry. Based on the % of uncleaved substrate, compound activity was expressed as % enzyme inhibition at 500 μM compound concentration. A set of compounds was then subjected to a CYTO ID-based assay (Stankov et al., 2014). This assay is based on selective labelling of autophagic vacuoles in Jurkat T-cells. Quantification of the stained autophagic compartments can then be used for assessment of autophagy modulation. Autophagy induction was obtained by addition of 10 μM everolimus in EtOH in the presence of 10 μM test compound and autophagy inhibition was monitored as a decline in autophagic vacuoles and the corresponding fluorescent signal. […]
# [2] = molecular target: T1, HsAtg4B (Homo sapiens, UniProt Q9Y4P1); assay: SDS-PAGE-based screening assay for Atg4B inhibition (cleavage of LC3B-GST); format: biochemical; conditions: 500 μM compound concentration; LC3B-GST substrate, 6 minutes; read-out: SDS-PAGE Enzyme inhibition (%)
# T1 sequence (Q9Y4P1 1-393): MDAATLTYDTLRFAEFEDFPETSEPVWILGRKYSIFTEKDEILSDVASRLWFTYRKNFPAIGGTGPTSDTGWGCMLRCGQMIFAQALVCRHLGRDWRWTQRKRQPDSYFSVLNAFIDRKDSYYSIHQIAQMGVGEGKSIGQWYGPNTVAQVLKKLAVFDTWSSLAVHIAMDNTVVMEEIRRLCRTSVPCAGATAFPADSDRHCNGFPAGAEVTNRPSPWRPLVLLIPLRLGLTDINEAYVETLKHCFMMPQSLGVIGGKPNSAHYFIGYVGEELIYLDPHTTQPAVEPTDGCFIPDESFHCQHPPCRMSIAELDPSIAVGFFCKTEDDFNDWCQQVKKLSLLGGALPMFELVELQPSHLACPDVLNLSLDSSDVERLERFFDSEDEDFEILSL
# [3] = Metabolic stability in mouse microsomes; format: in vitro ADME; conditions: for recovery at 30 min, 10 µM: mouse liver microsomes, read-out: Microsomal stability (mouse) recovery of parent compound after 30 min (%); for microsomal stability, comparison in words: mouse microsomes
# Description: A 5 mM compound solution was prepared in DMSO. A mixture of 713 μL milliQ water (Milli-Q Direct 8, Merck Millipore), 200 μL 0.5 M phosphate buffer (BD Diagnostic Systems, 257385), 50 μL NADPH regenerating system solution A (BD Biosciences), 10 μL NADPH regenerating system solution B (BD Biosciences) and 2 μL compound solution was prepared and heated for 5 min at 37° C. 25 μL of liver microsomes (Corning B.V. Life Sciences) was added to the mixture and 20 μL samples were withdrawn at 0, 15, 30, 60, 120, 240 and 360 minutes. 80 μL (4×20 μL) of cold acetonitrile (Sigma-Aldrich) was added to the samples on ice for 10 minutes. Afterwards, the mixtures were centrifuged at 13000 rpm for 5 minutes at 4° C. A volume of 75 μL of an acetonitrile/water (10/90) mixture was added to 25 μL supernatant and the obtained samples were analyzed by LC-MS/MS in triplicate.
# [4] = Plasma stability in mouse plasma; format: in vitro ADME; conditions: for recovery at 1 h, 50 µM: Non Swiss Albino, 37° C., read-out: Plasma stability (mouse) recovery of parent compound after lh (%); for plasma stability compared to the non-halogenated analogues: comparison in words
# Description: A 10 mM compound solution was prepared in DMSO (Acros). A 5 μL aliquot was added to 995 μL of mouse plasma (Non Swiss Albino Mouse Plasma, sodium citrate, DivBioScience, IMS-N) to obtain a final solution of 50 μM. The mixture was gently shaken for 6 hours at 37° C. Aliquots of 100 μL were taken at various time points (0, 30, 60, 120, 180, 360 minutes) and diluted with 400 μL of cold methanol (Sigma-Aldrich) (stored at 4° C.). The suspension was centrifuged at 14000 rpm for 5 minutes. Afterwards, 50 μL of the supernatant was diluted with 950 μL of methanol and analyzed with LC-MS/MS (Waters Acquity H-class UPLC system with ion trap mass spectrometer, Bruker Daltonics Esquire 3000 plus, and Agilent 1100 Series LC system). The samples were analyzed in triplicate. A standard curve was plotted using compound concentrations of 3.12-100 μM in mouse plasma.
# [5] = test system: autophagy; conditions: cited from earlier work
# [6] = test system: autophagy; assay: Cellular screening assay for autophagy inhibitors (in our hands); format: cell-based
"recovery at 30 min, 10 µM ([3]; 37° C.) [%]","microsomal stability, comparison in words [3]","recovery at 1 h, 50 µM [4] [%]",plasma stability compared to the non-halogenated analogues [4],Structure (SMILES),other results
100,substantial increase,19 ± 1,substantial increase,"O=C(O)c1cc(O)c(=O)c2c(O)c(O)c(Br)cc2c1 [Compound 36, 2-bromo-3,4,6-trihydroxy-5-oxo-5H-benzo[7]annulene-8-carboxylic acid]",–
23 ± 7,substantial increase,87 ± 4,substantial increase,"CCCCOC(=O)c1cc(O)c(=O)c2c(O)c(O)c(Br)cc2c1 [Compound 40, Butyl 2-bromo-3,4,6-trihydroxy-5-oxo-5H-benzo[7]annulene-8-carboxylate]",–

# The remaining lines, values behind:
Structure (SMILES),"recovery at 30 min, 10 µM ([3]; 37° C.) [%]","microsomal stability, comparison in words [3]","recovery at 1 h, 50 µM [4] [%]",plasma stability compared to the non-halogenated analogues [4],other results
"Cn1cnc(N)c2ncnc1-2 [Compound 3-MA, 3-Methyladenine, reference compound]",–,–,–,–,activity at 10000 µM [1]: 57%
"NC(=O)c1cc(O)c(=O)c2c(O)c(O)c(F)cc2c1 [Compound 31, 2-fluoro-3,4,6-trihydroxy-5-oxo-5H-benzo[7]annulene-8-carboxamide]",–,–,–,–,inhibition at 500 µM [2]: 39.9%
O=C(O)c1cc(O)c(=O)c2c(O)c(O)ccc2c1 [Shu et al.],–,–,0,–,"recovery at 30 min, 10 µM ([3]; value obtained using linear interpolation): 100%; autophagy inhibition reported by Shu et al. [5]: weak autophagy inhibitor; in cellulo autophagy inhibition (reported) ([5]; in cellulo): no in cellulo autophagy inhibition; activity in a cellular screening assay for autophagy inhibitors [6]: did not show activity"
